Reference: publication PMC3879630 (Molecular & Cellular Proteomics : MCP, 2013)
Positions count from the first letter of the chain named.

Assays:
Assay in all cases: biotin-switch assay, anti-GST western blot
Assay type in all cases: binding
RNF41 [1] = target: T1, RNF41 (Homo sapiens, UniProt Q9H4P4, C134S); conditions: covalent (S-nitrosylation of cysteine); 100 μM GSNO
T1 sequence (Q9H4P4 1-317 C134S): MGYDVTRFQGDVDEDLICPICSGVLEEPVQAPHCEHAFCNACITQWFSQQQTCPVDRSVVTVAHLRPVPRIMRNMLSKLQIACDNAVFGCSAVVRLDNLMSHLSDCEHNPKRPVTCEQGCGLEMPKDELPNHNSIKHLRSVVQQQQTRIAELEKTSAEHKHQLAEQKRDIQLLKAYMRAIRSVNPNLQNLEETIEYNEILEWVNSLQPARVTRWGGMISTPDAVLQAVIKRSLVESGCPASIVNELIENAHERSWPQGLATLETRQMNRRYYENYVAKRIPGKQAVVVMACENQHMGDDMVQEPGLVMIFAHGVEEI

RNF41 [2] = target: T2, RNF41 (Homo sapiens, UniProt Q9H4P4, C106S); conditions: covalent (S-nitrosylation of cysteine); 100 μM GSNO
T2 sequence (Q9H4P4 1-317 C106S): T1 sequence (Q9H4P4 1-317 C134S) with C106S, S134C

RNF11 [3] = target: T3, RNF11 (Homo sapiens, UniProt Q9Y3C5); conditions: covalent (S-nitrosylation, Cys4); 100 μM GSNO, 1 h; GSH control
T3 sequence (Q9Y3C5 1-154): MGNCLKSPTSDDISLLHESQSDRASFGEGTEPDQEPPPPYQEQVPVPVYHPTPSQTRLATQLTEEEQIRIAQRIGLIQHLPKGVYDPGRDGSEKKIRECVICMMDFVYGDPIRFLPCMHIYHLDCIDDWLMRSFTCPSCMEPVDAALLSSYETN

RNF11 [4] = target: T4, RNF11 (Homo sapiens, UniProt Q9Y3C5, C4S); conditions: covalent (S-nitrosylation of cysteine); 100 μM GSNO
T4 sequence (Q9Y3C5 1-154 C4S): T3 sequence (Q9Y3C5 1-154) with C4S

RNF141 [5] = target: T5, RNF141 (Homo sapiens, UniProt Q8WVD5, C82S); conditions: covalent (S-nitrosylation of cysteine); 100 μM GSNO
T5 sequence (Q8WVD5 1-230 C82S): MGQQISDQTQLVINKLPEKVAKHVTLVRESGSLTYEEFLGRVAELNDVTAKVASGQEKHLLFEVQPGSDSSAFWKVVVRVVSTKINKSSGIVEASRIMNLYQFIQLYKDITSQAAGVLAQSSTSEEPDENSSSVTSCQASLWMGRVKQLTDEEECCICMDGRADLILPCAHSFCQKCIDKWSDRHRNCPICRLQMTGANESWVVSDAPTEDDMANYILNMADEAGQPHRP

RNF141 [6] = target: T6, RNF141 (Homo sapiens, UniProt Q8WVD5); conditions: covalent (S-nitrosylation of cysteine); 100 μM GSNO
T6 sequence (Q8WVD5 1-230): T5 sequence (Q8WVD5 1-230 C82S) with S82C

RNF41 [7] = target: T7, RNF41 (Homo sapiens, UniProt Q9H4P4, C238S); conditions: covalent (S-nitrosylation of cysteine); 100 μM GSNO
T7 sequence (Q9H4P4 1-317 C238S): T1 sequence (Q9H4P4 1-317 C134S) with S134C, C238S

N[C@@H](CCC(=O)N[C@@H](CSN=O)C(=O)NCC(=O)O)C(=O)O [GSNO]
S-nitrosylation (BSM) (RNF41 [1]): C134S and C238S mutants have minimal effect on the S-nitrosylation of RNF41 | S-nitrosylation (BSM) (RNF41 [2]): The C106S RNF41 protein S-nitrosylation signal is dramatically reduced compared with WT RNF41 | biotin-switch assay, anti-GST western blot (RNF11 [3]): Cys4 is S-nitrosylated in RNF11 | S-nitrosylation (BSM) (RNF11 [4]): The C4S RNF11 protein is not S-nitrosylated | S-nitrosylation (BSM) (RNF141 [5]): The C82S and C175S RNF141 proteins both show reduced S-nitrosylation compared with WT RNF141 | S-nitrosylation (BSM) (RNF141 [6]): The C82S and C175S RNF141 proteins both show reduced S-nitrosylation compared with WT RNF141 | S-nitrosylation (BSM) (RNF41 [7]): C134S and C238S mutants have minimal effect on the S-nitrosylation of RNF41
